Patent US20220354805A1, “Cannabidiol (CBD) as Chemical for Treating Aging-related Degenerative Diseases and Promoting Health Aging” (Hemix Biotech Limited, priority 2021, published 2022)

Tested on: Caenorhabditis elegans
Test: Lifespan analysis of Caenorhabditis elegans
Format: in vivo
Settings: C. elegans
Procedure: In step of analyzing the lifespan of Caenorhabditis elegans, for chemical treatment in Caenorhabditis elegans, chemical was added to the nematode growth medium (NGM) dishes. The NGM with agarose was autoclaved and then cooled down to below 65° C. The different concentrations of chemical were added to NGM. The NGM was then poured into 60 mm dishes and incubated at room temperature overnight. The solidified NGM dishes were stored at 4° C. Escherichia coli OP50 strain was used as the food source for C. elegans. A single colony of OP50 was incubated in 200 mL of lysogeny broth (LB) medium at 37° C. overnight. The OP50 was then killed by incubation at 65° C. for […]. The dead OP50 was spread throughout the surface of the NGM dishes. The NGM dishes with dead OP50 and CBD were stored at 4° C. for up to 2 weeks. The synchronization of C. elegans was carried out by the bleaching method. 20 L4 larvae were picked to each 60 mm dish with different concentrations of chemical and cultured at 20° C. They were monitored every day, and the number of living, dead and missing C. elegans were recorded. The C. elegans were transferred to fresh Petri dishes every 2 days to separate the target worms from their offspring and to ensure if they had enough food source. 10-20 μM of CBD was identified to be the optimal dosage for extending the lifespan of C. elegans.

For C=C(C)[C@@H]1CCC(C)=C[C@H]1c1c(O)cc(CCCCC)cc1O [CBD, Cannabidiol], the maximum lifespan increase (10 or 20 μM CBD) was 8-12.5%, the median lifespan increase (10 or 20 μM CBD) was 55-61.5% and the “optimal dosage for extending the lifespan” value (CBD in NGM dishes, 20° C.) was 10 to 20 µM.
